One test concerns Phakopsora pachyrhizi. The test is described as follows: Phakopsora pachyrhizi / soybean / leaf disc preventative (Asian soybean rust). It counts as in vivo. To be noted: foliar, 200 ppm in the applied formulation, soybean leaf disks, inoculated one day after application, vs untreated, 12 to 14 days after application, read-out: disease control. The procedure: (§1) Leaf disks or leaf segments of various plant species are cut from plants grown in a greenhouse. The cut leaf disks or segments are placed in multiwell plates (24-well format) onto water agar. The leaf disks are sprayed with a test solution before (preventative) or after (curative) inoculation. Compounds to be tested are prepared as DMSO solutions (max. 10 mg/ml) which are diluted to the appropriate concentration with 0.025% Tween20 just before spraying. The inoculated leaf disks or segments are incubated under defined conditions (temperature, relative humidity, light, etc.) according to the respective test system. A single evaluation of disease level is carried out 3 to 14 days after inoculation, depending on the pathosystem. Percent disease control relative to the untreated check leaf disks or segments is then calculated.
Example 3: Fungicidal Activity Against Phakopsora pachyrhizi/Soybean/Leaf Disc Preventative (Asian Soybean Rust)
Soybean leaf disks are placed on water agar in multiwell plates (24-well format) and sprayed with the Formulated test compound diluted in water. One day after application leaf discs are inoculated by spraying a spore suspension on the lower leaf surface. After an incubation period in a climate cabinet of 24-36 hours in darkness at 20° C. and 75% rh leaf disc are kept at 20° C. with 12 h light/day and 75% rh. The activity of a compound is assessed as percent disease control compared to untreated when an appropriate level of disease damage appears in untreated check leaf disks (12 to 14 days after application).
(§2) The following compounds at 200 ppm in the applied Formulation give at least 80% disease control in this test when compared to untreated control leaf disks under the same conditions, which show extensive disease development.

Test [1] concerns Glomerella lacenarium (Colletotrichum lacenarium). In words: Glomerella lacenarium (Colletotrichum lacenarium) liquid culture / cucumber / preventative (anthracnose). Format: cell-based. The note with it: 20 ppm, liquid culture in PDB, 24° C., inhibition of growth measured photometrically 3 to 4 days after application, vs untreated, read-out: disease control. On the procedure:
Mycelia fragments or conidia suspensions of a fungus prepared either freshly from liquid cultures of the fungus or from cryogenic storage, are directly mixed into nutrient broth. DMSO solutions of the test compound (max. 10 mg/ml) are diluted with 0.025% Tween20 by a factor of 50 and 10 μl of this solution is pipetted into a microtiter plate (96-well format). The nutrient broth containing the fungal spores/mycelia fragments is then added to give an end concentration of the tested compound. The test plates are incubated in the dark at 24° C. and 96% relative humidity. The inhibition of fungal growth is determined photometrically after 2 to 7 days, depending on the pathosystem, and percent antifungal activity relative to the untreated check is calculated.
Example 4: Fungicidal Activity Against Glomerella lacenarium (Colletotrichum lacenarium) Liquid Culture/Cucumber/Preventative (Anthracnose)
Conidia of the fungus from cryogenic storage are directly mixed into nutrient broth (PDB-potato dextrose broth). After placing a (DMSO) solution of test compound into a microtiter plate (96-well format), the nutrient broth containing the fungal spores is added. The test plates are incubated at 24° C. and the inhibition of growth is measured photometrically 3 to 4 days after application.
The following compounds at 20 ppm in the applied Formulation give at least 80% disease control in this test when compared to untreated control under the same conditions, which show extensive disease development.

In test [2] the test system is Puccinia recondita f. Sp. Tritici. The test is described as follows: Puccinia recondita f. sp. tritici / wheat / leaf disc preventative (brown rust). Format: in vivo. To be noted: foliar, 200 ppm in the applied formulation, wheat leaf segments cv. Kanzler, inoculated 1 day after application, vs untreated, 7 to 9 days after application, read-out: disease control. The procedure: as §1
Example 1: Fungicidal Activity Against Puccinia recondita f. Sp. Tritici/Wheat/Leaf Disc Preventative (Brown Rust)
Wheat leaf segments cv. Kanzler were placed on agar in multiwell plates (24-well format) and sprayed with the Formulated test compound diluted in water. The leaf disks were inoculated with a spore suspension of the fungus 1 day after application. The inoculated leaf segments were incubated at 19° C. and 75% relative humidity (rh) under a light regime of 12 hours light/12 hours darkness in a climate cabinet and the activity of a compound was assessed as percent disease control compared to untreated when an appropriate level of disease damage appears in untreated check leaf segments (7 to 9 days after application).
as §2

For the compound `CN(C(=O)C1CC1(F)F)c1ccc(-c2noc(C(F)(F)F)n2)cc1` (stereo not shown) [Compound 1.133, 2,2-difluoro-N-methyl-N-[4-[5-(trifluoromethyl)-1,2,4-oxadiazol-3-yl]phenyl]cyclo-propanecarboxamide], the pest or weed control at 200 ppm in the test on Phakopsora pachyrhizi was at least 80%.
For the compound `CC1CC1C(=O)N(C)c1ccc(-c2noc(C(F)(F)F)n2)cc1` (stereo not shown) [Compound 1.137, N,2-dimethyl-N-[4-[5-(trifluoromethyl)-1,2,4-oxadiazol-3-yl]phenyl]cyclo-propanecarboxamide], in the test with Phakopsora pachyrhizi, the pest or weed control at 200 ppm was at least 80%. The inhibition of growth at 20 ppm in test [1] is at least 80%.
For `CCC(=O)Nc1ccc(CC(=O)Nc2ccc(-c3noc(C(F)(F)F)n3)cc2)cc1` [Compound 1.27, N-[4-[2-oxo-2-[4-[5-(trifluoromethyl)-1,2,4-oxadiazol-3-yl]anilino]ethyl]phenyl]propanamide], the pest or weed control at 200 ppm in the test with Phakopsora pachyrhizi was at least 80%.
Regarding `CCC(=O)N(OC)c1ccc(-c2noc(C(F)(F)F)n2)cc1` [Compound 2.28, N-methoxy-N-[4-[5-(trifluoromethyl)-1,2,4-oxadiazol-3-yl]phenyl] propanamide], the pest or weed control at 200 ppm in the test with Phakopsora pachyrhizi is at least 80%. The inhibition of growth at 20 ppm in test [1] was at least 80%.
In the case of `O=C(CCc1ccccc1)Nc1ccc(-c2noc(C(F)(F)F)n2)cc1` [Compound 1.76, 3-phenyl-N-[4-[5-(trifluoromethyl)-1,2,4-oxadiazol-3-yl]phenyl] propanamide], in test [2], the pest or weed control at 200 ppm was at least 80%. The inhibition of growth at 20 ppm in test [1] is at least 80%.
Regarding `O=C(CC1CC(F)(F)C1)Nc1ccc(-c2noc(C(F)(F)F)n2)cc1` [Compound 1.97, 2-(3,3-difluorocyclobutyl)-N-[4-[5-(trifluoromethyl)-1,2,4-oxadiazol-3-yl]phenyl]acetamide], in test [2], the pest or weed control at 200 ppm was at least 80%. Moreover, the inhibition of growth at 20 ppm in test [1] was at least 80%.
`CC(CO)(CCl)C(=O)Nc1ccc(-c2noc(C(F)(F)F)n2)cc1` (stereo not shown) [Compound 1.103, 2-(chloromethyl)-3-hydroxy-2-methyl-N-[4-[5-(trifluoromethyl)-1,2,4-oxadiazol-3-yl]phenyl] propanamide]: in test [2], the pest or weed control at 200 ppm is at least 80%. The inhibition of growth at 20 ppm in test [1] is at least 80%.
Consider `O=C(Nc1ccc(-c2noc(C(F)(F)F)n2)cc1)C1CCSCC1` [Compound 1.96, N-[4-[5-(trifluoromethyl)-1,2,4-oxadiazol-3-yl]phenyl] tetrahydrothiopyran-4-carboxamide], for which, in test [2], the pest or weed control at 200 ppm is at least 80%. In test [1], the inhibition of growth at 20 ppm was at least 80%.
In the case of `CN(C(=O)C1(C)CC1)c1ccc(-c2noc(C(F)(F)F)n2)cc1` [Compound 1.138, N,1-dimethyl-N-[4-[5-(trifluoromethyl)-1,2,4-oxadiazol-3-yl]phenyl]cyclo-propanecarboxamide], the pest or weed control at 200 ppm in the test on Phakopsora pachyrhizi is at least 80%.
Turning to `COCCOCC(=O)Nc1ccc(-c2noc(C(F)(F)F)n2)cc1` [Compound 1.122, 2-(2-methoxyethoxy)-N-[4-[5-(trifluoromethyl)-1,2,4-oxadiazol-3-yl]phenyl]acetamide], the pest or weed control at 200 ppm in test [2] is at least 80%. In test [1], the inhibition of growth at 20 ppm is at least 80%.
As for `O=C(Cc1cc(C(F)(F)F)ccn1)Nc1ccc(-c2noc(C(F)(F)F)n2)cc1` [Compound 1.115, N-[4-[5-(trifluoromethyl)-1,2,4-oxadiazol-3-yl]phenyl]-2-[4-(trifluoromethyl)-2-pyridyl]acetamide], in test [2], the pest or weed control at 200 ppm was at least 80%. In test [1], the inhibition of growth at 20 ppm was at least 80%.
Regarding `C=CCCC(=O)Nc1ccc(-c2noc(C(F)(F)F)n2)cc1` [Compound 1.88, N-[4-[5-(trifluoromethyl)-1,2,4-oxadiazol-3-yl]phenyl]pent-4-enamide], in test [2], the pest or weed control at 200 ppm was at least 80%. Further, the inhibition of growth at 20 ppm in test [1] was at least 80%.
As for `O=C(Nc1ccc(-c2noc(C(F)(F)F)n2)cc1)C1CCCC1` [Compound 2.6, N-[4-[5-(trifluoromethyl)-1,2,4-oxadiazol-3-yl]phenyl] cyclopentane-carboxamide], in test [2], the pest or weed control at 200 ppm is at least 80%. Further, in test [1], the inhibition of growth at 20 ppm is at least 80%.
On to `O=C(CSc1ccccc1)Nc1ccc(-c2noc(C(F)(F)F)n2)cc1` [Compound 1.44, 2-phenylsulfanyl-N-[4-[5-(trifluoromethyl)-1,2,4-oxadiazol-3-yl]phenyl]acetamide], for which, in test [2], the pest or weed control at 200 ppm was at least 80%. Besides, the inhibition of growth at 20 ppm in test [1] was at least 80%.
Take `C=CCC(=O)Nc1ccc(-c2noc(C(F)(F)F)n2)cc1` [Compound 1.94, N-[4-[5-(trifluoromethyl)-1,2,4-oxadiazol-3-yl]phenyl]but-3-enamide]: in test [2], the pest or weed control at 200 ppm is at least 80%. Also, in test [1], the inhibition of growth at 20 ppm was at least 80%.
For `O=C(Nc1ccc(-c2noc(C(F)(F)F)n2)cc1)C1CCC1` [Compound 2.9, N-[4-[5-(trifluoromethyl)-1,2,4-oxadiazol-3-yl]phenyl] cyclobutane-carboxamide], the pest or weed control at 200 ppm in test [2] was at least 80%. The inhibition of growth at 20 ppm in test [1] was at least 80%.
On to `COCc1nc(C)c(C(=O)Nc2ccc(-c3noc(C(F)(F)F)n3)nc2)s1` [Compound 1.51, 2-(methoxymethyl)-4-methyl-N-[6-[5-(trifluoromethyl)-1,2,4-oxadiazol-3-yl]-3-pyridyl]thiazole-5-carboxamide], for which, in the test on Phakopsora pachyrhizi, the pest or weed control at 200 ppm was at least 80%.
As for `O=C(Nc1ccc(-c2noc(C(F)(F)F)n2)cc1)C1=CCCC1` [Compound 1.81, N-[4-[5-(trifluoromethyl)-1,2,4-oxadiazol-3-yl]phenyl] cyclopentene-1-carboxamide], the pest or weed control at 200 ppm with Phakopsora pachyrhizi is at least 80%. Also, in test [1], the inhibition of growth at 20 ppm is at least 80%.
Regarding `O=C1CC(C(=O)Nc2ccc(-c3noc(C(F)(F)F)n3)cc2)C1` [Compound 1.106, 3-oxo-N-[4-[5-(trifluoromethyl)-1,2,4-oxadiazol-3-yl]phenyl]cyclo-butanecarboxamide], the pest or weed control at 200 ppm in test [2] was at least 80%. In addition, in test [1], the inhibition of growth at 20 ppm is at least 80%.
On to `CC(C)(C(=O)Nc1ccc(-c2noc(C(F)(F)F)n2)nc1)c1ncc(Cl)cc1Cl` [Compound 1.53, 2-(3,5-dichloro-2-pyridyl)-2-methyl-N-[6-[5-(trifluoromethyl)-1,2,4-oxadiazol-3-yl]-3-pyridyl]propanamide], for which the pest or weed control at 200 ppm in the test on Phakopsora pachyrhizi was at least 80%.
Regarding `COC(=O)CCC(=O)Nc1ccc(-c2noc(C(F)(F)F)n2)cc1` [Compound 1.83, methyl 4-oxo-4-[4-[5-(trifluoromethyl)-1,2,4-oxadiazol-3-yl]anilino]butanoate], the pest or weed control at 200 ppm in test [2] is at least 80%. In test [1], the inhibition of growth at 20 ppm was at least 80%.
For `O=C(Nc1ccc(-c2noc(C(F)(F)F)n2)cc1)C(F)F` [Compound 1.120, 2,2-difluoro-N-[4-[5-(trifluoromethyl)-1,2,4-oxadiazol-3-yl]phenyl]acetamide], the pest or weed control at 200 ppm in test [2] is at least 80%. Moreover, the inhibition of growth at 20 ppm in test [1] is at least 80%.
Turning to `CC(=O)OCC(=O)Nc1ccc(-c2noc(C(F)(F)F)n2)cc1` [Compound 1.95, [2-oxo-2-[4-[5-(trifluoromethyl)-1,2,4-oxadiazol-3-yl]anilino]ethyl] acetate], the pest or weed control at 200 ppm in test [2] was at least 80%. In addition, the inhibition of growth at 20 ppm in test [1] was at least 80%.
For `CCC(CC)C(=O)Nc1ccc(-c2noc(C(F)(F)F)n2)cc1` [Compound 1.91, 2-ethyl-N-[4-[5-(trifluoromethyl)-1,2,4-oxadiazol-3-yl]phenyl]butanamide], the pest or weed control at 200 ppm in the test with Phakopsora pachyrhizi was at least 80%. For the same compound, the inhibition of growth at 20 ppm in test [1] is at least 80%.

Values taken from patent publication US20200022370A1, “MICROBIOCIDAL OXADIAZOLE DERIVATIVES” (SYNGENTA PARTICIPATIONS AG, priority 2016, published 2020).
